Test results: paper PMC5218480 (PLoS ONE, 2017)

Test system: MV-4-11 cells
Test: Gene expression microarray analysis (Affymetrix PrimeView) and GSEA
Type: cell-based, human
Parameters: RFU PODN (11730768_x_at) / Fold change /veh PODN (11730768_x_at) / RFU LINC00158 (11744669_a_at) / Fold change /veh LINC00158 (11744669_a_at) / RFU DUSP10 (11751237_a_at) / Fold change /veh DUSP10 (11751237_a_at) / RFU ID3 (11757404_x_at) / Fold change /veh ID3 (11757404_x_at) / RFU PLEKHG5 (11737974_s_at) / Fold change /veh PLEKHG5 (11737974_s_at) / RFU LRRC4B (11730491_at) / Fold change /veh LRRC4B (11730491_at) / RFU GIMAP4 (11747438_a_at) / Fold change /veh GIMAP4 (11747438_a_at) / RFU KRT8 (11758183_x_at) / Fold change /veh KRT8 (11758183_x_at) / RFU CNN1 (11734310_a_at) / Fold change /veh CNN1 (11734310_a_at) / RFU VPS37D (11726825_at) / Fold change /veh VPS37D (11726825_at) / RFU C10orf10 (11716522_x_at) / Fold change /veh C10orf10 (11716522_x_at) / RFU KIR2DL2 /// KIR2DL4 /// KIR2DL5A /// KIR2DL5B /// KIR2DS1 /// KIR2DS2 /// KIR2DS3 /// KIR2DS4 /// KIR3DL3 /// KIR3DL3 /// KIR3DS1 (11738374_at) / Fold change /veh KIR2DL2 /// KIR2DL4 /// KIR2DL5A /// KIR2DL5B /// KIR2DS1 /// KIR2DS2 /// KIR2DS3 /// KIR2DS4 /// KIR3DL3 /// KIR3DL3 /// KIR3DS1 (11738374_at) / RFU C1QL1 (11718748_at) / Fold change /veh C1QL1 (11718748_at) / RFU TMPRSS4 (11747572_a_at) / Fold change /veh TMPRSS4 (11747572_a_at) / RFU HAMP (11756126_x_at) / Fold change /veh HAMP (11756126_x_at) / RFU RNFT2 (11725882_a_at) / Fold change /veh RNFT2 (11725882_a_at) / RFU NR4A2 (11747474_a_at) / Fold change /veh NR4A2 (11747474_a_at) / RFU ABCC12 (11746883_a_at) / Fold change /veh ABCC12 (11746883_a_at) / RFU TMEM136 (11760407_x_at) / Fold change /veh TMEM136 (11760407_x_at) / RFU CLDN22 /// WWC2 (11732394_at) / Fold change /veh CLDN22 /// WWC2 (11732394_at) / RFU HLA-DPB1 (11760878_x_at) / Fold change /veh HLA-DPB1 (11760878_x_at) / RFU SPINT1 (11716480_a_at) / Fold change /veh SPINT1 (11716480_a_at) / RFU GAP43 (11754022_s_at) / Fold change /veh GAP43 (11754022_s_at) / RFU A4GNT (11735810_at) / Fold change /veh A4GNT (11735810_at) / RFU PRB3 (11715151_x_at) / Fold change /veh PRB3 (11715151_x_at) / RFU TUBB4B (11761932_at) / Fold change /veh TUBB4B (11761932_at) / RFU CAPN14 (11732068_a_at) / Fold change /veh CAPN14 (11732068_a_at) / RFU TMCC2 (11721928_a_at) / Fold change /veh TMCC2 (11721928_a_at) / RFU IRGQ (11745062_a_at) / Fold change /veh IRGQ (11745062_a_at) / RFU FAM174B (11720279_a_at) / Fold change /veh FAM174B (11720279_a_at) / RFU TMPRSS4 (11748680_a_at) / Fold change /veh TMPRSS4 (11748680_a_at) / RFU FAM212B (11763350_a_at) / Fold change /veh FAM212B (11763350_a_at) / RFU PLEKHG5 (11743358_a_at) / Fold change /veh PLEKHG5 (11743358_a_at) / RFU ZSCAN30 (11745921_a_at) / Fold change /veh ZSCAN30 (11745921_a_at) / RFU CMKLR1 (11741424_a_at) / Fold change /veh CMKLR1 (11741424_a_at) / RFU LOC101060620 /// MAPK8IP1 (11723275_at) / Fold change /veh LOC101060620 /// MAPK8IP1 (11723275_at) / RFU SPTSSB (11747773_x_at) / Fold change /veh SPTSSB (11747773_x_at) / RFU PRSS12 (11739890_at) / Fold change /veh PRSS12 (11739890_at) / RFU BIN1 (11741810_x_at) / Fold change /veh BIN1 (11741810_x_at) / RFU WNT11 (11732464_a_at) / Fold change /veh WNT11 (11732464_a_at) / RFU C10orf10 (11716521_a_at) / Fold change /veh C10orf10 (11716521_a_at) / RFU C5orf56 (11738089_at) / Fold change /veh C5orf56 (11738089_at) / RFU CYB561 (11721691_x_at) / Fold change /veh CYB561 (11721691_x_at) / RFU ANKRD19P (11752326_a_at) / Fold change /veh ANKRD19P (11752326_a_at) / RFU OR2T12 /// OR2T33 /// OR2T8 (11738714_s_at) / Fold change /veh OR2T12 /// OR2T33 /// OR2T8 (11738714_s_at) / RFU VCAN (11748164_a_at) / Fold change /veh VCAN (11748164_a_at) / RFU JSRP1 (11732532_at) / Fold change /veh JSRP1 (11732532_at) / RFU KRTAP10-11 (11738290_x_at) / Fold change /veh KRTAP10-11 (11738290_x_at) / RFU MYO3A (11730013_a_at) / Fold change /veh MYO3A (11730013_a_at) / RFU EBF3 (11725865_a_at) / Fold change /veh EBF3 (11725865_a_at) / RFU CAMK2N1 (11719241_x_at) / Fold change /veh CAMK2N1 (11719241_x_at) / RFU C5orf56 (11738088_a_at) / Fold change /veh C5orf56 (11738088_a_at) / RFU OLFML3 (11715873_a_at) / Fold change /veh OLFML3 (11715873_a_at) / RFU LOC100653217 /// NTM (11731650_a_at) / Fold change /veh LOC100653217 /// NTM (11731650_a_at) / RFU MAPK11 (11762145_a_at) / Fold change /veh MAPK11 (11762145_a_at) / RFU FIZ1 (11724087_x_at) / Fold change /veh FIZ1 (11724087_x_at) / RFU OASL (11726364_x_at) / Fold change /veh OASL (11726364_x_at) / RFU SOX15 (11748057_x_at) / Fold change /veh SOX15 (11748057_x_at) / RFU CD79A (11719716_a_at) / Fold change /veh CD79A (11719716_a_at) / RFU HIST1H1D (11736915_at) / Fold change /veh HIST1H1D (11736915_at) / RFU CASKIN2 (11723855_a_at) / Fold change /veh CASKIN2 (11723855_a_at) / RFU LOC730098 (11760151_x_at) / Fold change /veh LOC730098 (11760151_x_at) / RFU OR4N2 (11742367_at) / Fold change /veh OR4N2 (11742367_at) / RFU PRRT2 (11749266_a_at) / Fold change /veh PRRT2 (11749266_a_at) / RFU SNX32 (11753110_a_at) / Fold change /veh SNX32 (11753110_a_at) / RFU CDHR5 (11726645_a_at) / Fold change /veh CDHR5 (11726645_a_at) / RFU RCAN1 (11760418_a_at) / Fold change /veh RCAN1 (11760418_a_at) / RFU FAM167A (11723789_a_at) / Fold change /veh FAM167A (11723789_a_at) / RFU FAM26E (11764081_at) / Fold change /veh FAM26E (11764081_at) / RFU ISYNA1 (11749810_s_at) / Fold change /veh ISYNA1 (11749810_s_at) / RFU ACY1 (11761880_at) / Fold change /veh ACY1 (11761880_at) / RFU 11764098_at / Fold change /veh 11764098_at / RFU SAMD14 (11745864_x_at) / Fold change /veh SAMD14 (11745864_x_at) / RFU NPB (11741838_a_at) / Fold change /veh NPB (11741838_a_at) / RFU TMPRSS6 (11731388_a_at) / Fold change /veh TMPRSS6 (11731388_a_at) / RFU KRTAP10-2 (11738614_at) / Fold change /veh KRTAP10-2 (11738614_at) / RFU ARHGAP8 /// PRR5-ARHGAP8 (11727945_x_at) / Fold change /veh ARHGAP8 /// PRR5-ARHGAP8 (11727945_x_at) / RFU KRTAP5-7 /// NADSYN1 (11734609_at) / Fold change /veh KRTAP5-7 /// NADSYN1 (11734609_at) / RFU RASL12 (11751679_a_at) / Fold change /veh RASL12 (11751679_a_at) / RFU CDKN2B (11736163_a_at) / Fold change /veh CDKN2B (11736163_a_at) / RFU PRF1 (11729649_at) / Fold change /veh PRF1 (11729649_at) / RFU, ZNF638 /// ZNF638-IT1 / Fold change vs veh, ZNF638 /// ZNF638-IT1 / RFU, PANK3 / Fold change vs veh, PANK3 / RFU, SH3YL1 / Fold change vs veh, SH3YL1 / RFU, ZEB2 / Fold change vs veh, ZEB2 / RFU, NRIP1 / Fold change vs veh, NRIP1 / RFU, PTTG1IP / Fold change vs veh, PTTG1IP / RFU, CAPN2 / Fold change vs veh, CAPN2 / RFU, MED14 / Fold change vs veh, MED14 / RFU, SNORA58 / Fold change vs veh, SNORA58 / RFU, C1orf63 / Fold change vs veh, C1orf63 / RFU, LRRFIP1 / Fold change vs veh, LRRFIP1 / RFU, NDUFAF7 / Fold change vs veh, NDUFAF7 / RFU, SLC12A2 / Fold change vs veh, SLC12A2 / RFU, IBTK / Fold change vs veh, IBTK / RFU, ESF1 / Fold change vs veh, ESF1 / Fold change vs veh, TMEM50B / RFU, TAOK1 / Fold change vs veh, TAOK1 / RFU, ACBD3 / Fold change vs veh, ACBD3 / RFU, TMA16 / Fold change vs veh, TMA16 / RFU, RWDD3 / Fold change vs veh, RWDD3 / RFU, BCAT1 / Fold change vs veh, BCAT1 / RFU, EDEM3 / Fold change vs veh, EDEM3 / RFU, TMEM33 / Fold change vs veh, TMEM33 / RFU, WDR75 / Fold change vs veh, WDR75 / RFU, AHCTF1 / Fold change vs veh, AHCTF1 / RFU, TFRC / Fold change vs veh, TFRC / RFU, ZDHHC17 / Fold change vs veh, ZDHHC17 / RFU, NOM1 / Fold change vs veh, NOM1 / RFU, ARL8B / Fold change vs veh, ARL8B / RFU, ZBTB11 / Fold change vs veh, ZBTB11 / RFU, TAMM41 / Fold change vs veh, TAMM41 / RFU, KIAA1704 /// LOC100996395 / Fold change vs veh, KIAA1704 /// LOC100996395 / RFU, ING1 / Fold change vs veh, ING1 / RFU, TRMT61B / Fold change vs veh, TRMT61B / RFU, FUBP3 / Fold change vs veh, FUBP3 / RFU, TP53 / Fold change vs veh, TP53 / RFU, TNKS2 / Fold change vs veh, TNKS2 / RFU, ZFP14 / Fold change vs veh, ZFP14 / RFU, ACTR2 / Fold change vs veh, ACTR2 / RFU, PPP3R1 / Fold change vs veh, PPP3R1 / RFU, PIK3R1 / Fold change vs veh, PIK3R1 / RFU, HNRNPA1 / Fold change vs veh, HNRNPA1 / RFU, RNF170 / Fold change vs veh, RNF170 / RFU, ZNF28 / Fold change vs veh, ZNF28 / RFU, RNGTT / Fold change vs veh, RNGTT / RFU, OGT / Fold change vs veh, OGT / RFU, BRD1 / Fold change vs veh, BRD1 / RFU, MARS / Fold change vs veh, MARS / RFU, ZNF655 / Fold change vs veh, ZNF655 / RFU, FAHD1 / Fold change vs veh, FAHD1 / RFU, BDP1 / Fold change vs veh, BDP1 / RFU, LRRCC1 / Fold change vs veh, LRRCC1 / RFU, ARID1A / Fold change vs veh, ARID1A / RFU, ZNF146 / Fold change vs veh, ZNF146 / RFU, ZNF330 / Fold change vs veh, ZNF330 / RFU, GPN3 / Fold change vs veh, GPN3 / RFU, C9orf123 / Fold change vs veh, C9orf123 / RFU, N4BP2L2 / Fold change vs veh, N4BP2L2 / RFU, ARFIP1 / Fold change vs veh, ARFIP1 / RFU, FAM179B / Fold change vs veh, FAM179B / RFU, BCL10 / Fold change vs veh, BCL10 / RFU, UHRF1BP1L / Fold change vs veh, UHRF1BP1L / RFU, BET1 / Fold change vs veh, BET1 / RFU, CNOT2 / Fold change vs veh, CNOT2 / RFU, ZNF268 / Fold change vs veh, ZNF268 / Fold change vs veh, ZNF507 / RFU, DGCR2 / Fold change vs veh, DGCR2 / RFU, WDSUB1 / Fold change vs veh, WDSUB1 / Fold change vs veh, HSP90B1 /// MIR3652 / RFU, ADSS / Fold change vs veh, ADSS / RFU, GK / Fold change vs veh, GK / RFU, ZNF148 / Fold change vs veh, ZNF148 / RFU, TAF9 / Fold change vs veh, TAF9 / RFU, SLC1A5 / Fold change vs veh, SLC1A5 / RFU, SLMO2 / Fold change vs veh, SLMO2 / RFU, ABCC4 / Fold change vs veh, ABCC4 / RFU, LOC101060439 /// RAP1B / Fold change vs veh, LOC101060439 /// RAP1B / RFU, RFX7 / Fold change vs veh, RFX7 / RFU, GTPBP10 / Fold change vs veh, GTPBP10 / RFU, CNEP1R1 / Fold change vs veh, CNEP1R1 / RFU, BIVM-ERCC5 /// ERCC5 / Fold change vs veh, BIVM-ERCC5 /// ERCC5 / RFU, ILF3 / Fold change vs veh, ILF3 / RFU 11762660_at / Fold change /veh 11762660_at / RFU VCAN (11757783_s_at) / Fold change /veh VCAN (11757783_s_at) / RFU DDX43 (11728927_at) / Fold change /veh DDX43 (11728927_at) / RFU KRT8 (11758188_x_at) / Fold change /veh KRT8 (11758188_x_at) / RFU NKD1 (11759106_at) / Fold change /veh NKD1 (11759106_at) / RFU SRD5A1 (11742802_a_at) / Fold change /veh SRD5A1 (11742802_a_at) / RFU TPSAB1 /// TPSB2 (11721975_s_at) / Fold change /veh TPSAB1 /// TPSB2 (11721975_s_at) / RFU GSTM3 (11746129_a_at) / Fold change /veh GSTM3 (11746129_a_at) / RFU IL23R (11737362_x_at) / Fold change /veh IL23R (11737362_x_at) / RFU TMEM51 (11727254_a_at) / Fold change /veh TMEM51 (11727254_a_at) / RFU PIWIL2 (11732686_x_at) / Fold change /veh PIWIL2 (11732686_x_at) / RFU ORM1 (11744905_x_at) / Fold change /veh ORM1 (11744905_x_at) / RFU CCDC152 (11743942_at) / Fold change /veh CCDC152 (11743942_at) / RFU ECM1 (11717891_a_at) / Fold change /veh ECM1 (11717891_a_at) / RFU IL23R (11748794_a_at) / Fold change /veh IL23R (11748794_a_at) / RFU TNFAIP8L3 (11732012_x_at) / Fold change /veh TNFAIP8L3 (11732012_x_at) / RFU MBOAT4 (11741988_at) / Fold change /veh MBOAT4 (11741988_at) / RFU 11764193_at / Fold change /veh 11764193_at / RFU TMEM53 (11763286_at) / Fold change /veh TMEM53 (11763286_at) / RFU MAGEB2 (11727129_at) / Fold change /veh MAGEB2 (11727129_at) / RFU TMEM200A (11744735_a_at) / Fold change /veh TMEM200A (11744735_a_at) / RFU CCDC152 (11751479_a_at) / Fold change /veh CCDC152 (11751479_a_at) / RFU FAM211A (11726209_a_at) / Fold change /veh FAM211A (11726209_a_at) / RFU RGS16 (11746705_a_at) / Fold change /veh RGS16 (11746705_a_at) / RFU VCAN (11755009_s_at) / Fold change /veh VCAN (11755009_s_at) / RFU RHOB (11743442_s_at) / Fold change /veh RHOB (11743442_s_at) / RFU RGS16 (11720943_a_at) / Fold change /veh RGS16 (11720943_a_at) / RFU RGS16 (11720944_at) / Fold change /veh RGS16 (11720944_at) / RFU, VPS4B / Fold change vs veh, VPS4B / RFU, CREB1 / Fold change vs veh, CREB1 / RFU, DNAJC13 / Fold change vs veh, DNAJC13 / RFU, GNAQ / Fold change vs veh, GNAQ / RFU, CDK5R1 / Fold change vs veh, CDK5R1 / RFU, ZRANB3 / Fold change vs veh, ZRANB3 / RFU, CUL4A / Fold change vs veh, CUL4A / RFU, CCNY / Fold change vs veh, CCNY / RFU, UFL1 / Fold change vs veh, UFL1 / RFU, COG3 / Fold change vs veh, COG3 / RFU, DIAPH2 / Fold change vs veh, DIAPH2 / RFU, SKA2 / Fold change vs veh, SKA2 / RFU, AFF3 / Fold change vs veh, AFF3 / RFU, LMF1 / Fold change vs veh, LMF1 / RFU, IPO11 / Fold change vs veh, IPO11 / RFU, DFFB / Fold change vs veh, DFFB / RFU, FOXP1 / Fold change vs veh, FOXP1 / RFU, CARD8 / Fold change vs veh, CARD8 / RFU, STRN3 / Fold change vs veh, STRN3 / RFU, ADK / Fold change vs veh, ADK / RFU, RASSF2 / Fold change vs veh, RASSF2 / RFU, WIPF1 / Fold change vs veh, WIPF1 / RFU, LARP1B / Fold change vs veh, LARP1B / RFU, RASA1 / Fold change vs veh, RASA1 / RFU, RB1 / Fold change vs veh, RB1 / RFU, PPFIA1 / Fold change vs veh, PPFIA1 / RFU, MAT2A / Fold change vs veh, MAT2A / RFU, CCT5 / Fold change vs veh, CCT5 / RFU, WDR92 / Fold change vs veh, WDR92 / RFU, CUX1 / Fold change vs veh, CUX1 / RFU, TTC7A / Fold change vs veh, TTC7A / RFU, TMEM135 / Fold change vs veh, TMEM135 / RFU, DEPTOR / Fold change vs veh, DEPTOR / RFU, CPM / Fold change vs veh, CPM / RFU, DNAJB6 / Fold change vs veh, DNAJB6 / RFU, CACNA2D3 / Fold change vs veh, CACNA2D3 / RFU, DTX4 / Fold change vs veh, DTX4 / RFU, TFCP2 / Fold change vs veh, TFCP2 / RFU, GMCL1 /// GMCL1P1 / Fold change vs veh, GMCL1 /// GMCL1P1 / RFU, AEBP2 / Fold change vs veh, AEBP2 / RFU, SNHG1 /// SNORD22 /// SNORD25 /// SNORD26 /// SNORD27 /// SNORD28 /// SNORD29 /// SNORD31 / Fold change vs veh, SNHG1 /// SNORD22 /// SNORD25 /// SNORD26 /// SNORD27 /// SNORD28 /// SNORD29 /// SNORD31 / Fold change (Aza/veh), C12orf56 (ProbeSet 11735607_a_at) / Fold change (ACY-1035/veh), C12orf56 (ProbeSet 11735607_a_at) / Fold change (Aza/veh), FGFR1OP (ProbeSet 11751329_s_at) / Fold change (ACY-1035/veh), FGFR1OP (ProbeSet 11751329_s_at) / Fold change (Aza/veh), VPS36 (ProbeSet 11739960_a_at) / Fold change (ACY-1035/veh), VPS36 (ProbeSet 11739960_a_at) / RFU SYPL1 (11715823_x_at) / Fold change /veh SYPL1 (11715823_x_at) / RFU IGFBP7 (11715501_s_at) / Fold change /veh IGFBP7 (11715501_s_at) / RFU REEP3 (11722064_at) / Fold change /veh REEP3 (11722064_at) / RFU IGLL1 (11728026_x_at) / Fold change /veh IGLL1 (11728026_x_at): dose or concentration left out as unconfirmed
Details: MV-4-11 cells, 48 hours

In the case of `Nc1ccc(-c2cccs2)cc1NC(=O)c1ccc2c(c1)cc(C1CC1)n2CCN1CCOCC1` [ACY-1035], the “Fold change /veh KRT8 (11758183_x_at)” value was 1.06.
